Where a name gives a salt, the structure may show the parent alone.
Molecular target: T1, murine MCHR (Mus musculus, UniProt Q8JZL2)
T1 construct: expressed in transfected cells; host or cells: HEK293
Test: Assay for release of intracellular calcium (FLIPR, Fluo-4), inhibition of MCH-induced Ca++ flux
Format: cell-based
Conditions: test compound at a dose of 10 μM, HEK293 cells expressing the murine MCHR, read-out: inhibition of MCH (MCH induced Ca++ flux / fluorescence)
Summary of the method: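 HEK293 cells expressing murine MCHR were loaded with Fluo-4AM (2.5 μM) and given compound (40 μM stock in 4% DMSO), with 3 min monitoring for agonism. They were then challenged with mouse MCH (12 nM as added) and FLIPR fluorescence followed 3 min more. % inhibition of MCH-induced Ca++ flux was calculated against baseline and no-compound signals.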

T1 sequence (Q8JZL2 whole entry): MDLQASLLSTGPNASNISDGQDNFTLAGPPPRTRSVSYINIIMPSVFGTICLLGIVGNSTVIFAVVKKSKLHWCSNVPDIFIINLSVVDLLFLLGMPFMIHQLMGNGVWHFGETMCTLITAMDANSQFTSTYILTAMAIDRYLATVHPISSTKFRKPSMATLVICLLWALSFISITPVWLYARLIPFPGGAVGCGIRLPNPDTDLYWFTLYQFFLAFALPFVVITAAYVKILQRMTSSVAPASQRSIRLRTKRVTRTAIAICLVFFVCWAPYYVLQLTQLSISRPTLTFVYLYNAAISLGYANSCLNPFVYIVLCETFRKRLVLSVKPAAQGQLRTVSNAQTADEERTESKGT

Inhibition at 10 µM, ≥ 50%:
O=C(NCCN1CCCC1)c1ccc(CN2CCC(Nc3cc(=O)oc4ccc(Cl)cc34)CC2)cc1 [II-55, 4-[4-(6-Chloro-2-oxo-2H-chromen-4-ylamino)-piperidin-1-ylmethyl]-N-(2-pyrrolidin-1-yl-ethyl)-benzamide; Double TFA Salt]
O=c1cc(NC2CCN(C/C=C/c3ccccc3Cl)CC2)c2cc(Cl)ccc2o1 [III-2, 6-Chloro-4-{1-[3-(2-chloro-phenyl)-allyl]-piperidin-4-ylamino}-chromen-2-one]
COc1ccc2oc(=O)cc(NC3CCN(Cc4ccc5c(c4)OC(F)(F)O5)CC3)c2c1 [II-68, 4-[1-(2,2-Difluoro-benzo[1,3]dioxol-5-ylmethyl)-piperidin-4-ylamino]-6-methoxy-chromen-2-one trifluoroacetate]
C[C@H](c1ccc2c(c1)OCO2)N1CCC(Nc2cc(=O)oc3ccc(Cl)cc23)CC1 [II-28, 4-[1-(1-Benzo[1,3]dioxol-5-yl-ethyl)-piperidin-4-ylamino]-6-chloro-chromen-2-one]
O=c1cc(NC2CCN(Cc3ccc4occc4c3)CC2)c2cc(Cl)ccc2n1Cc1ccncc1 [Compound V-10, 4-(1-Benzofuran-5-ylmethyl-piperidin-4-ylamino)-6-chloro-1-pyridin-4-ylmethyl-1H-quinolin-2-one]
COc1ccc2oc(=O)cc(NC3CCN(Cc4ccc(OCCCN5CCCCC5)c(Cl)c4)CC3)c2c1 [II-115, 4-{1-[3-Chloro-4-(3-piperidin-1-yl-propoxy)-benzyl]-piperidin-4-ylamino}-6-methoxy-chromen-2-one; Double TFA Salt]
O=c1cc(NC2CCN(Cc3ccc4c(c3)OCO4)CC2)c2cc(Cl)cc(Br)c2o1 [II-41, 4-(1-Benzo[1,3]dioxol-5-ylmethyl-piperidin-4-ylamino)-8-bromo-6-chloro-chromen-2-one]
COc1ccc2oc(=O)cc(NC3CCN(Cc4cccc5ccccc45)CC3)c2c1 [II-66, 6-Methoxy-4-(1-naphthalen-1-ylmethyl-piperidin-4-ylamino)-chromen-2-one trifluoroacetate]
COc1ccc2oc(=O)cc(NC3CCN(Cc4ccc(C)cc4C)CC3)c2c1 [II-25, 4-[1-(2,4-Dimethyl-benzyl)-piperidin-4-ylamino]-6-methoxy-chromen-2-one trifluoroacetate]
COc1ccc2oc(=O)cc(NC3CCN(Cc4ccc(Cl)c(F)c4)CC3)c2c1 [II-58, 4-[1-(4-Chloro-3-fluoro-benzyl)-piperidin-4-ylamino]-6-methoxy-chromen-2-one trifluoroacetate]
CN(C)C(=O)c1c(NC2CCN(Cc3ccc4ccccc4c3)CC2)c2cc(Cl)ccc2n(C)c1=O [Compound V-24, 6-Chloro-1-methyl-4-(1-naphthalen-2-ylmethyl-piperidin-4-ylamino)-2-oxo-1,2-dihydro-quinoline-3-carboxylic acid dimethylamide]
O=c1cc(NC2CCN(Cc3ccc4c(c3)OCO4)CC2)c2cc(Cl)ccc2n1Cc1cc[n+]([O-])cc1 [Compound V-19, 4-(1-Benzo[1,3]dioxol-5-ylmethyl-piperidin-4-ylamino)-6-chloro-1-(1-oxy-pyridin-4-ylmethyl)-1H-quinolin-2-one]
O=c1cc(NC2CCN(Cc3cc4ccccc4o3)CC2)c2cc(Cl)ccc2o1 [II-18, 4-(1-Benzofuran-2-ylmethyl-piperidin-4-ylamino)-6-chloro-chromen-2-one]
CCn1c(=O)cc(NC2CCN(C/C=C/c3ccccc3)CC2)c2cc(Cl)ccc21 [Compound V-63, 6-Chloro-1-ethyl-4-[1-(3-phenyl-allyl)-piperidin-4-ylamino]-1H-quinolin-2-one]
